According to ChEMBL document CHEMBL4321812, “Structure-based rational design of staurosporine-based fluorescent probe with broad-ranging kinase affinity for kinase panel application” (Bioorg Med Chem Lett, 2019):

Columns and labels:
[1] = target: Hepatocyte growth factor receptor (Homo sapiens, UniProt P08581); assay: Binding affinity to recombinant full-length N-terminal His-FLAG-GST-tagged MET (unknown origin) (956 to 1390 residues) expressed in baculovirus infected Sf9 insect cells incubated for 1 hr by TR-FRET assay
[2] = target: Ribosomal protein S6 kinase alpha-5 (Homo sapiens, UniProt O75582); assay: Binding affinity to recombinant full-length N-terminal His-FLAG-GST-tagged RPS6KA5 (unknown origin) expressed in baculovirus infected Sf9 insect cells incubated for 1 hr by TR-FRET assay
[3] = target: NUAK family SNF1-like kinase 2 (Homo sapiens, UniProt Q9H093); assay: Binding affinity to recombinant full-length N-terminal His-FLAG-tagged NUAK2 (unknown origin) expressed in baculovirus infected Sf9 insect cells incubated for 1 hr by TR-FRET assay
[4] = target: TGF-beta receptor type-2 (Homo sapiens, UniProt P37173); assay: Binding affinity to recombinant N-terminal His-FLAG-GST-tagged TGFBR2 (unknown origin) (194 to 567 residues) expressed in baculovirus infected Sf9 insect cells incubated for 1 hr by TR-FRET assay
[5] = target: Dual specificity protein kinase CLK1 (Homo sapiens, UniProt P49759); assay: Binding affinity to recombinant N-terminal His-FLAG-GST-tagged CLK1 (unknown origin) (129 to 484 residues) expressed in baculovirus infected Sf9 insect cells incubated for 1 hr by TR-FRET assay
[6] = target: Serine/threonine-protein kinase TNNI3K (Homo sapiens, UniProt Q59H18); assay: Binding affinity to recombinant N-terminal His-FLAG-GST-tagged TNNI3K (unknown origin) (1 to 727 residues) expressed in baculovirus infected Sf9 insect cells incubated for 1 hr by TR-FRET assay
[7] = target: Phosphorylase b kinase gamma catalytic chain, skeletal muscle/heart isoform (Homo sapiens, UniProt Q16816); assay: Binding affinity to recombinant full-length N-terminal His-FLAG-GST-tagged PHKG1 (unknown origin) expressed in baculovirus infected Sf9 insect cells incubated for 1 hr by TR-FRET assay
[8] = target: Calcium/calmodulin-dependent protein kinase kinase 1 (Homo sapiens, UniProt Q8N5S9); assay: Binding affinity to recombinant full-length N-terminal His-FLAG-GST-tagged CAMKK1 (unknown origin) expressed in baculovirus infected Sf9 insect cells incubated for 1 hr in presence of calmodulin by TR-FRET assay
[9] = target: cAMP-dependent protein kinase catalytic subunit beta (Homo sapiens, UniProt P22694); assay: Binding affinity to recombinant full-length N-terminal His-FLAG-GST-tagged PRKACB (unknown origin) expressed in baculovirus infected Sf9 insect cells incubated for 1 hr by TR-FRET assay
[10] = target: BMP-2-inducible protein kinase (Homo sapiens, UniProt Q9NSY1); assay: Binding affinity to recombinant full-length N-terminal His-FLAG-GST-tagged BMP2K (unknown origin) expressed in baculovirus infected Sf9 insect cells incubated for 1 hr by TR-FRET assay
[11] = target: Ribosomal protein S6 kinase alpha-1 (Homo sapiens, UniProt Q15418); assay: Binding affinity to recombinant full length human N-terminal GST-tagged RPS6KA1 expressed in baculovirus expression system using S6K peptide as substrate incubated for 1 hr by TR-FRET assay
[12] = target: Tyrosine-protein kinase receptor UFO (Homo sapiens, UniProt P30530); assay: Binding affinity to recombinant full-length N-terminal His-FLAG-GST-tagged AXL (unknown origin) expressed in baculovirus infected Sf9 insect cells incubated for 1 hr by TR-FRET assay
[13] = target: Misshapen-like kinase 1 (Homo sapiens, UniProt Q8N4C8); assay: Binding affinity to recombinant full-length N-terminal His-FLAG-GST-tagged MINK1 (unknown origin) (1 to 314 residues) expressed in baculovirus infected Sf9 insect cells incubated for 1 hr by TR-FRET assay
[14] = target: Calcium/calmodulin-dependent protein kinase type II subunit delta (Homo sapiens, UniProt Q13557); assay: Binding affinity to recombinant human full-length N-terminal GST-tagged CAMK2D expressed in baculovirus expression system using GS peptide as substrate incubated for 1 hr by TR-FRET assay
[15] = target: Serine/threonine-protein kinase N1 (Homo sapiens, UniProt Q16512); assay: Binding affinity to recombinant full-length N-terminal His-FLAG-GST-tagged PKN1 (unknown origin) expressed in baculovirus infected Sf9 insect cells incubated for 1 hr by TR-FRET assay
[16] = target: Homeodomain-interacting protein kinase 4 (Homo sapiens, UniProt Q8NE63); assay: Binding affinity to recombinant full-length N-terminal His-FLAG-tagged HIPK4 (unknown origin) expressed in baculovirus infected Sf9 insect cells incubated for 1 hr by TR-FRET assay
[17] = target: STE20-like serine/threonine-protein kinase (Homo sapiens, UniProt Q9H2G2); assay: Binding affinity to recombinant N-terminal His-FLAG-GST-tagged SLK (unknown origin) (1 to 1152 residues) expressed in baculovirus infected Sf9 insect cells incubated for 1 hr by TR-FRET assay
[18] = target: Aurora kinase A (Homo sapiens, UniProt O14965); assay: Binding affinity to recombinant full-length N-terminal His-FLAG-GST-tagged AURKA (unknown origin) expressed in baculovirus infected Sf9 insect cells incubated for 1 hr by TR-FRET assay
[19] = target: Proto-oncogene tyrosine-protein kinase Src (Homo sapiens, UniProt P12931); assay: Binding affinity to recombinant full-length N-terminal His-FLAG-GST-tagged SRC (unknown origin) expressed in baculovirus infected Sf9 insect cells incubated for 1 hr by TR-FRET assay
[20] = target: cGMP-dependent protein kinase 1 (Homo sapiens, UniProt Q13976); assay: Binding affinity to recombinant full-length N-terminal His-FLAG-tagged PRKG1 (unknown origin) expressed in baculovirus infected Sf9 insect cells incubated for 1 hr by TR-FRET assay
[21] = target: Calcium/calmodulin-dependent protein kinase type II subunit alpha (Homo sapiens, UniProt Q9UQM7); assay: Binding affinity to recombinant human full-length N-terminal GST-tagged CAMK2A expressed in baculovirus expression system using GS peptide as substrate incubated for 1 hr in presence of calmodulin by TR-FRET assay
[22] = target: Receptor tyrosine-protein kinase erbB-4 (Homo sapiens, UniProt Q15303); assay: Binding affinity to recombinant human full-length N-terminal GST-tagged ERBB4 expressed in baculovirus expression system using srctide as substrate incubated for 1 hr by TR-FRET assay
[23] = target: Calcium/calmodulin-dependent protein kinase type II subunit gamma (Homo sapiens, UniProt Q13555); assay: Binding affinity to recombinant full-length N-terminal His-FLAG-GST-tagged CAMK2G (unknown origin) expressed in baculovirus infected Sf9 insect cells incubated for 1 hr in presence of calmodulin by TR-FRET assay
[24] = target: Fibroblast growth factor receptor 1 (Homo sapiens, UniProt P11362); assay: Binding affinity to recombinant N-terminal His-FLAG-GST-tagged FGFR1 (unknown origin) (396 to 820 residues) expressed in baculovirus infected Sf9 insect cells incubated for 1 hr by TR-FRET assay

Chain of Hepatocyte growth factor receptor (P08581 whole entry, the tested form may be a part): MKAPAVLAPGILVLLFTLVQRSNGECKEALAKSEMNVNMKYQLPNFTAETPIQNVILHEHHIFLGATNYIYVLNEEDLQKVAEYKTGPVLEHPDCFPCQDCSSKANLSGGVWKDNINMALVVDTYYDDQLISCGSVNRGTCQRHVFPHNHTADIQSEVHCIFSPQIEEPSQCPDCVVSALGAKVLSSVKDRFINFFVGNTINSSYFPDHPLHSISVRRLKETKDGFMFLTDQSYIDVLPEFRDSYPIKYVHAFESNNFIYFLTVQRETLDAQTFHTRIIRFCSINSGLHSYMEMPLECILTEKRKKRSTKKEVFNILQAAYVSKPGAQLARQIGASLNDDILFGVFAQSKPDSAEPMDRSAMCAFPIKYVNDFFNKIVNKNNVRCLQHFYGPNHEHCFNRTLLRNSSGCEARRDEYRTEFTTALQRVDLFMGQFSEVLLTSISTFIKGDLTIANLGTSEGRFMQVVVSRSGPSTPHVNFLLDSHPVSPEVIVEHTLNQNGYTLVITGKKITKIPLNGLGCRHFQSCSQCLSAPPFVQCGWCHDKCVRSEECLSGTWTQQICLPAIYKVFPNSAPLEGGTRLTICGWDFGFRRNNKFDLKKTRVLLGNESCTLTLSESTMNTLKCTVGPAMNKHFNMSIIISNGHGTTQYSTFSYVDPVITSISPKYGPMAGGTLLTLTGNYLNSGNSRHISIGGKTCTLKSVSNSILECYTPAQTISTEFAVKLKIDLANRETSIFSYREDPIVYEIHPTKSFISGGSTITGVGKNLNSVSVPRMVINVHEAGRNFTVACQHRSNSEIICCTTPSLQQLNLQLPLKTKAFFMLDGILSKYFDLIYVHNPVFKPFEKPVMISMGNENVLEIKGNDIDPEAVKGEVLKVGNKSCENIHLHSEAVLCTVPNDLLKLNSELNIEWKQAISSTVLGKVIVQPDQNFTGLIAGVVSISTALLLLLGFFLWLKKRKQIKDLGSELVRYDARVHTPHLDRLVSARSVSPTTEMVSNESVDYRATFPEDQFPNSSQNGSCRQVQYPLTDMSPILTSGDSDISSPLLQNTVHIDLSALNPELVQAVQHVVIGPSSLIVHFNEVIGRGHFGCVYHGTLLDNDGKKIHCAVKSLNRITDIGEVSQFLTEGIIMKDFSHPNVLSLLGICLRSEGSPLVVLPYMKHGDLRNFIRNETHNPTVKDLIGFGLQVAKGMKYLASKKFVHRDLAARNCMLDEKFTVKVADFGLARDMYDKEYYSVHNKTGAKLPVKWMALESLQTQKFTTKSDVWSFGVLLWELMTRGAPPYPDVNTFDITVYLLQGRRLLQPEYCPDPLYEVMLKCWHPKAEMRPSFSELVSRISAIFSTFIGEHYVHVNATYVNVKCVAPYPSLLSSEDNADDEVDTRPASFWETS
Chain of TGF-beta receptor type-2 (P37173 whole entry, the tested form may be a part): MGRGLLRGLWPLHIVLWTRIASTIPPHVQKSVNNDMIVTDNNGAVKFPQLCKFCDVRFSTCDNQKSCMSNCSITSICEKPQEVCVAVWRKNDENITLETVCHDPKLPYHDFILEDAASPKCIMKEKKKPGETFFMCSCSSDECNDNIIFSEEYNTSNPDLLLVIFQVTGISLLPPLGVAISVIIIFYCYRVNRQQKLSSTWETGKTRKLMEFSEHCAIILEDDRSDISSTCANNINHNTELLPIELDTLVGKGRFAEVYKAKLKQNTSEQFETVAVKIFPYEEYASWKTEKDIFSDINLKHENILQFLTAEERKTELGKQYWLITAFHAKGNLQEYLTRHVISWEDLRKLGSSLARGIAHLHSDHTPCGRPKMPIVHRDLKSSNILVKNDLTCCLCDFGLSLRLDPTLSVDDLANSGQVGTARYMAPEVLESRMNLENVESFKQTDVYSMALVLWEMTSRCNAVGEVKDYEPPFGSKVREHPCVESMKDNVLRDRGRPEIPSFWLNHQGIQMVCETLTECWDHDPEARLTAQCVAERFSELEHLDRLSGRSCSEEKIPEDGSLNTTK
Chain of Calcium/calmodulin-dependent protein kinase type II subunit delta (Q13557 whole entry): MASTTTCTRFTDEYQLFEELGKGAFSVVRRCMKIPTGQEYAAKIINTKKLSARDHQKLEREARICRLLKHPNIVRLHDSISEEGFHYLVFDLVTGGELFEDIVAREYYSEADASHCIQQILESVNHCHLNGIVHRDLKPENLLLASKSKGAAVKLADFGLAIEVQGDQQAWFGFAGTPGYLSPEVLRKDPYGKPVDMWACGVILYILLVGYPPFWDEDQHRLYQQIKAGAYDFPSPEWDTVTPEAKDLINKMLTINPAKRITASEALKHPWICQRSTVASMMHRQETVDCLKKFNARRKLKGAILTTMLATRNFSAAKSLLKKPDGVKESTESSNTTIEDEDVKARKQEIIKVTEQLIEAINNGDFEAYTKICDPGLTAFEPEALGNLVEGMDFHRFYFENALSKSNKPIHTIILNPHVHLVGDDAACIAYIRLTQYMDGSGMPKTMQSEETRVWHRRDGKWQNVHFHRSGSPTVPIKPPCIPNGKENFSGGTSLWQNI
Chain of Calcium/calmodulin-dependent protein kinase type II subunit alpha (Q9UQM7 whole entry): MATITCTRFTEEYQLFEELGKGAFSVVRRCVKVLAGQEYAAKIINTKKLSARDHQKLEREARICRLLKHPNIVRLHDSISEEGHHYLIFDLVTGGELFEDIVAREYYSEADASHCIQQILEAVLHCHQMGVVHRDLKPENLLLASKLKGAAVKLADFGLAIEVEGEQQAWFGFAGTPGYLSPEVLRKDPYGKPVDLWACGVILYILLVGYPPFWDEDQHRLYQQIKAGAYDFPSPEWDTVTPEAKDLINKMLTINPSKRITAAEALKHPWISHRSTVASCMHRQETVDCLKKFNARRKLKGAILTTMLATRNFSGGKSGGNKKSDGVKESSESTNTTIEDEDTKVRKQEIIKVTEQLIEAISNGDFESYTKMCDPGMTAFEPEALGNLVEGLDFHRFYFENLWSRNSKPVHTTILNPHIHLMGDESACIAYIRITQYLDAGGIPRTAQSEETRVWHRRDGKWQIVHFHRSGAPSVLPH
Chain of Misshapen-like kinase 1 (Q8N4C8 whole entry, the tested form may be a part): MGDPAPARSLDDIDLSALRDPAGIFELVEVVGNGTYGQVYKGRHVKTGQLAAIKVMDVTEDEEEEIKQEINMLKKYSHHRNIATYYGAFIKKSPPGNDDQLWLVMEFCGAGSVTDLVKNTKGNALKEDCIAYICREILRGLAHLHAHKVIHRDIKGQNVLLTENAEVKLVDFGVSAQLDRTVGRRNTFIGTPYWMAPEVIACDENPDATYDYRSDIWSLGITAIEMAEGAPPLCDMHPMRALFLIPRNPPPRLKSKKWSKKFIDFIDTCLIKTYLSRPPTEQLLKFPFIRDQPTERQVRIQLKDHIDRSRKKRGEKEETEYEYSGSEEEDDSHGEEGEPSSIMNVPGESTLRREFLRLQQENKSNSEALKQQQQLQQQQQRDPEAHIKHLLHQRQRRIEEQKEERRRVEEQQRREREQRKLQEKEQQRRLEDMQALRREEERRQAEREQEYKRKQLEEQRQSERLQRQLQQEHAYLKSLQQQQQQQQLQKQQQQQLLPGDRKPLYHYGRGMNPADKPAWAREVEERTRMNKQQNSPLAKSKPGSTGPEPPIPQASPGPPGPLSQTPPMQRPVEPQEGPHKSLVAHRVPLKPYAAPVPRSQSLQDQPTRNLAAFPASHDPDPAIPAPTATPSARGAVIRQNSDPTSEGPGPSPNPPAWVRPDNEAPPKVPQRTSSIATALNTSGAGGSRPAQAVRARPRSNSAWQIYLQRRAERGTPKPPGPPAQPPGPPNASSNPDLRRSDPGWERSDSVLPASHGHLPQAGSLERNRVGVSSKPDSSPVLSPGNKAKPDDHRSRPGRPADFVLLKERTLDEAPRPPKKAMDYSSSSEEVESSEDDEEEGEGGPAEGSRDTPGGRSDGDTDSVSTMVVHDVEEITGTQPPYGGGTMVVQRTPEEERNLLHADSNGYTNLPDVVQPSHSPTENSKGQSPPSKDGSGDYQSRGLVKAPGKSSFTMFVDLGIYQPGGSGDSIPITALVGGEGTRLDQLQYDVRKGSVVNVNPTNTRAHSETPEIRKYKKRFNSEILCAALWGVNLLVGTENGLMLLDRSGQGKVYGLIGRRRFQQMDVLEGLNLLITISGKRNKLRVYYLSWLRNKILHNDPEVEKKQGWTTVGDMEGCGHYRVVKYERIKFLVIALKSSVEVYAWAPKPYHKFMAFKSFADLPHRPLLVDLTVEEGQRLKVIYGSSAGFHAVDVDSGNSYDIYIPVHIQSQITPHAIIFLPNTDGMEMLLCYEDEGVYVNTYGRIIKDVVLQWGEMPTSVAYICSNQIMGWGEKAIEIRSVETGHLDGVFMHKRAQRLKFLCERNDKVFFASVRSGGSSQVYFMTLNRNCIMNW
Chain of Dual specificity protein kinase CLK1 (P49759 whole entry, the tested form may be a part): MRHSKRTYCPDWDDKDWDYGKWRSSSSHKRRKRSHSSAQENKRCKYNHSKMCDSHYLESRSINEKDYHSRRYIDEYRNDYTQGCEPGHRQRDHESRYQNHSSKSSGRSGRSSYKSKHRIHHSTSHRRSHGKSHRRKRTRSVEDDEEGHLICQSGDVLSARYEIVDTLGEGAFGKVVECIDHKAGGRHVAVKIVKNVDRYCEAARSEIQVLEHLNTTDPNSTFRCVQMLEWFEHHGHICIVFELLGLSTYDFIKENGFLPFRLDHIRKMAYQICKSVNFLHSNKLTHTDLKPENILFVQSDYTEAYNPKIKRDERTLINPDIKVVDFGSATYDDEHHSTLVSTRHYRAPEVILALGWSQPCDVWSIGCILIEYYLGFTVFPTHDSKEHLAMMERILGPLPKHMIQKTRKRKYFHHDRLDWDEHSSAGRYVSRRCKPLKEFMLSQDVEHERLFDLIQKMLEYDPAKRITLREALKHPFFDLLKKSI

CO[C@@H]1[C@H](NCCOCCOCCOCCNC(=O)CCC2=[N+]3C(=Cc4c(C)cc(C)n4[B-]3(F)F)C=C2)C[C@H]2O[C@]1(C)n1c3ccccc3c3c4c(c5c6ccccc6n2c5c31)C(=O)NC4
Kd [1]: 0.93 µM | Kd [2]: 0.345 µM | Kd [3]: 0.01 µM | Kd [4]: 0.854 µM | Kd [5]: 0.093 µM | Kd [6]: 0.844 µM | Kd [7]: 0.001 µM | Kd [8]: 0.011 µM | Kd [9]: 0.064 µM | Kd [10]: 0.024 µM | Kd [11]: 0.016 µM | Kd [12]: 0.313 µM | Kd [13]: 0.228 µM | Kd [14]: 0.004 µM | Kd [15]: 0.011 µM | Kd [16]: 0.424 µM | Kd [17]: 0.005 µM | Kd [18]: 0.045 µM | Kd [19]: 0.452 µM | Kd [20]: 0.109 µM | Kd [21]: 0.015 µM | Kd [22]: 0.496 µM | Kd [23]: 0.008 µM | Kd [24]: 0.268 µM

CO[C@@H]1[C@H](N(C)CCOCCOCCOCCNC(=O)CCC2=[N+]3C(=Cc4c(C)cc(C)n4[B-]3(F)F)C=C2)C[C@H]2O[C@]1(C)n1c3ccccc3c3c4c(c5c6ccccc6n2c5c31)C(=O)NC4
Kd [1]: 0.812 µM | Kd [2]: 0.249 µM | Kd [3]: 0.011 µM | Kd [4]: > 2 µM | Kd [5]: 0.125 µM | Kd [6]: 1.2 µM | Kd [7]: 0.003 µM | Kd [8]: 0.014 µM | Kd [9]: 0.066 µM | Kd [10]: 0.019 µM | Kd [11]: 0.036 µM | Kd [12]: 0.559 µM | Kd [13]: 0.158 µM | Kd [14]: 0.006 µM | Kd [15]: 0.006 µM | Kd [16]: 0.472 µM | Kd [17]: 0.006 µM | Kd [18]: 0.051 µM | Kd [19]: 0.572 µM | Kd [20]: 0.085 µM | Kd [21]: 0.009 µM | Kd [22]: 0.798 µM | Kd [23]: 0.009 µM | Kd [24]: 0.643 µM
